Experimental findings from patent US10851108B2, “Substituted bicyclic heterocyclic compounds” (BRISTOL-MYERS SQUIBB COMPANY, priority 2016, dated 2020) are described below.

pIC50: −log10 of the molar value.

In this experiment the target is hROMK (human Kir1.1) (Homo sapiens (Human), UniProt P48048). Kind of experiment: Thallium Flux Assay. The settings on record: CHO T-Rex hROMK stable cell line, 10-point concentration response; read-out: hROMK Th+ Flux IC50. Format: cell-based. On the procedure: Solutions and reagents: Thallium flux assay was performed using FluxOR kit (F10017, Life Technologies). Loading buffer, assay buffer and stimulus buffer were prepared using kit components. HBSS (Hank's balanced salt solution, Cat #14025-092) was purchased separately from Life Technologies.
To prepare 10 ml of loading buffer: 10 μl of FluxOR dye (reconstituted in DMSO) was first added to 100 μl of powerload concentrate and this mix along with 100 μl of Probenicid (100×) was then added to 9.79 ml of HBSS. Assay buffer (10 ml) was prepared by addition of 2 ml of FluxOR chloride free buffer (5×), 100 μl of Probenicid (100×), and 0.2 ml of Ouabain (13.77 mM) to 7.7 ml of deionized water. Stimulus buffer was composed of 15 mM Tl2SO4, 0.75 mM K2SO4 in FluxOR chloride free buffer (diluted to 1× using deionized water). The final concentration of Tl2SO4 and K2SO4 in the assay plate was 3 mM and 0.15 mM, respectively.
Plating and induction of cells: The CHO T-Rex hROMK (human Kir1.1) stable cell line was maintained in Ham's F12 media supplemented with 10% FBS, 1% Penicillin-Streptomycin, 500 μg/ml Zeocin and 10 μg/ml Blasticidin at 37° C. in a 5% CO2 incubator. One day before the experiment, the cells were dissociated by incubation with Versene solution (15040-066, Life Technologies) for 10 minutes at 37° C. followed by addition of growth media. The cell suspension was centrifuged at 1200 rpm for 5 min. After discarding the supernatant, the cells were resuspended in fresh growth media and cell concentration was determined using a hemocytometer. Next, 0.5 μg/ml of Doxycycline was added to the cell suspension to induce hROMK channel expression and 50 μl (10,000 cells/well) of cell suspension was added to each well of a poly-D lysine coated 384 well black, optically clear bottom plate (6007718, Perkin Elmer). The assay plate was kept at 37° C. in a 5% CO2 incubator.
Assay protocol: On the day of experiment, media was removed and loading buffer was added (30 μl/well) to the assay plate. The cells were incubated in the loading buffer for 30 minutes at 37° C. The loading buffer was then replaced by assay buffer (30 μl/well) followed by addition of test compounds or controls. The cells were incubated with compounds for 30 minutes and the plate was then mounted on FlexStation (Molecular Devices) for fluorescence read out with excitation and emission wavelengths at 488 and 525 nm, respectively. Each well was read for 90 sec at 2 sec interval and the stimulus buffer was added after 20 seconds of baseline recording. The final DMSO concentration was either 0.5 or 1% in the assay plate. […] controls were defined by addition of DMSO or 3 μM of a standard ROMK inhibitor, respectively, to the wells instead of a test compound.
A 10-point concentration response curve was used to estimate the IC50 value of test compounds.
The data in Table 3 is reported with two significant figures.

A word on the pIC50: it is the negative decadic logarithm of the IC50, by convention in mol/L.

Sequence of hROMK (human Kir1.1) (P48048 whole entry): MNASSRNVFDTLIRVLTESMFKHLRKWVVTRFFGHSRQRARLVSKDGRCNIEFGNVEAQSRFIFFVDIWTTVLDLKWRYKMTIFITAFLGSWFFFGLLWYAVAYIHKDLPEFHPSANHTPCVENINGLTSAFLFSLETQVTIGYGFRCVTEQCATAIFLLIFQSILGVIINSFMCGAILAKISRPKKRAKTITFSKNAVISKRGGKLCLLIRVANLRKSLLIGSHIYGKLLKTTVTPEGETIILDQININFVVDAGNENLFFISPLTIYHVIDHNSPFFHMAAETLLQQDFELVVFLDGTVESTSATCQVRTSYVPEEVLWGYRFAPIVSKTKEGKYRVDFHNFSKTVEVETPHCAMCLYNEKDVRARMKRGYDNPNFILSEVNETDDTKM

Take `Cc1c(C(O)CN2CCc3nc(-n4cnc5ccccc54)ncc3C2)ccc2c1COC2=O` (single isomer, unassigned) [Example 67-I, 5-(2-(2-(1H-benzo[d]imidazol-1-yl)-7,8-dihydropyrido[4,3-d]pyrimidin-6(5H)-yl)-1-hydroxyethyl)-4-methyliso-benzofuran-1(3H)-one]: the negative-log IC50 (pIC50) was 6.80. In the case of `N#Cc1ccc(Nc2ncc3c(n2)CCN(Cc2ccc4c(c2)COC4=O)C3)cc1F` [Example 2] it was 6.02; in that of `Cc1c(CN2CCc3nc(Nc4ccc5c(c4C)COC5=O)ncc3C2)ccc2c1COC2=O` [Example 5, 4-methyl-5-((2-((4-methyl-1-oxo-1,3-dihydroisobenzofuran-5-yl)amino)-7,8-dihydropyrido[4,3-d]pyrimidin-6(5H)-yl)methyl)isobenzofuran-1(3H)-one], 6.10. To `N#Cc1ccc(Nc2ccc3c(c2)CCN(CCc2ccc4c(c2)COC4=O)C3)cc1F` [Example 6, 2-fluoro-4-((2-(2-(1-oxo-1,3-dihydroisobenzofuran-5-yl)ethyl)-1,2,3,4-tetrahydroisoquinolin-6-yl)amino)benzonitrile] belongs 6.92; to `N#Cc1ccc(Nc2ccc3c(n2)CCN(CCc2ccc4c(c2)COC4=O)C3)cc1F` [Example 7, 2-fluoro-4-((6-(2-(1-oxo-1,3-dihydroisobenzofuran-5-yl)ethyl)-5,6,7,8-tetrahydro-1,6-naphthyridin-2-yl)amino)benzonitrile], 6.70. For the compound `Cc1c(N2CCc3cc(NCc4ccc(C#N)c(F)c4)ccc3C2)ccc2c1COC2=O` [Example 10, 2-fluoro-4-(((2-(4-methyl-1-oxo-1,3-dihydroisobenzofuran-5-yl)-1,2,3,4-tetrahydroisoquinolin-6-yl)amino)methyl)benzonitrile], the negative logarithm of the IC50 (pIC50) is 5.34. To `N#Cc1ccc2c(cnn2-c2ncc3c(n2)CCN(Cc2ccc4c(c2)COC4=O)C3)c1` [Example 11, 1-(6-((1-oxo-1,3-dihydroisobenzofuran-5-yl)methyl)-5,6,7,8-tetrahydropyrido[4,3-d]pyrimidin-2-yl)-1H-indazole-5-carbonitrile] belongs 5.92; to `Cc1c(CN2CCc3nc(-n4ncc5cc(C#N)ccc54)ncc3C2)ccc2c1COC2=O` [Example 13, 1-(6-((4-methyl-1-oxo-1,3-dihydro-isobenzofuran-5-yl)methyl)-5,6,7,8-tetrahydropyrido[4,3-d]pyrimidin-2-yl)-1H-indazole-5-carbonitrile], 6.12; to `Cc1c(CN2CCc3cc(Nc4ccc5oc(=O)n(C)c5c4)ccc3C2)ccc2c1COC2=O` [Example 14, 3-methyl-5-((2-((4-methyl-1-oxo-1,3-dihydroisobenzofuran-5-yl)methyl)-1,2,3,4-tetrahydroisoquinolin-6-yl)amino)benzo[d]oxazol-2(3H)-one], 6.49.

As to `O=C1OCc2cc(CN3CCc4cc(Nc5ccc6c(c5)COC6=O)ccc4C3)ccc21` [Example 15, 5-((6-((1-oxo-1,3-dihydroisobenzofuran-5-yl)amino)-3,4-dihydroisoquinolin-2(1H)-yl)methyl)isobenzofuran-1(3H)-one], the pIC50 is 7.68.

Take `Cc1c(CN2CCc3nc(-n4ccc5c(C#N)cccc54)ncc3C2)ccc2c1COC2=O` [Example 20, 1-(6-((4-methyl-1-oxo-1,3-dihydro-isobenzofuran-5-yl)methyl)-5,6,7,8-tetrahydropyrido[4,3-d]pyrimidin-2-yl)-1H-indole-4-carbonitrile]: the pIC50 was 5.82. In the case of `Cc1c(CN2CCc3nc(-n4ccc5cc(C#N)ccc54)ncc3C2)ccc2c1COC2=O` [Example 21, 1-(6-((4-methyl-1-oxo-1,3-dihydro-isobenzofuran-5-yl)methyl)-5,6,7,8-tetrahydropyrido[4,3-d]pyrimidin-2-yl)-1H-indole-5-carbonitrile] it was 5.49. To `Cc1c(CN2CCc3nc(-n4cc(C#N)c5ccccc54)ncc3C2)ccc2c1COC2=O` [Example 23, 1-(6-((4-methyl-1-oxo-1,3-dihydro-isobenzofuran-5-yl)methyl)-5,6,7,8-tetrahydropyrido[4,3-d]pyrimidin-2-yl)-1H-indole-3-carbonitrile] belongs 5.96. Consider `Cc1c(CN2CCc3cc(-n4ccc5c(C#N)cccc54)ccc3C2)ccc2c1COC2=O` [Example 24, 1-(2-((4-methyl-1-oxo-1,3-dihydro-isobenzofuran-5-yl)methyl)-1,2,3,4-tetrahydroisoquinolin-6-yl)-1H-indole-4-carbonitrile], for which the negative logarithm of the IC50 (pIC50) is 6.09.

For `Cc1c(CN2CCc3nc(Nc4ccc(C#N)c(F)c4)ncc3C2)ccc2c1COC2=O` [Example 26, 2-fluoro-4-((6-((4-methyl-1-oxo-1,3-dihydroisobenzofuran-5-yl)methyl)-5,6,7,8-tetrahydropyrido[4,3-d]pyrimidin-2-yl)amino) benzonitrile], the pIC50 was 6.57.

On to `Cc1c(CCN2CCc3nc(Nc4ccc(C#N)c(F)c4)ncc3C2)ccc2c1COC2=O` [Example 27, 2-fluoro-4-((6-(2-(4-methyl-1-oxo-1,3-dihydroisobenzofuran-5-yl)ethyl)-5,6,7,8-tetrahydropyrido[4,3-d]pyrimidin-2-yl)amino) benzonitrile], for which the pIC50 is 6.70. In the case of `Cc1c(CN2CCc3cc(Nc4ccc(C#N)c(F)c4)ccc3C2)ccc2c1COC2=O` [Example 30, 2-fluoro-4-((2-((4-methyl-1-oxo-1,3-dihydroisobenzofuran-5-yl)methyl)-1,2,3,4-tetrahydroisoquinolin-6-yl)amino)benzonitrile] it was 6.09. In the case of `Cc1cc(Nc2ncc3c(n2)CCN(Cc2ccc4c(c2C)COC4=O)C3)ncc1C#N` [Example 31, 4-methyl-6-((6-((4-methyl-1-oxo-1,3-dihydroisobenzofuran-5-yl)methyl)-5,6,7,8-tetrahydropyrido[4,3-d]pyrimidin-2-yl)amino) nicotinonitrile] it was 5.82; in that of `Cc1cc(Nc2ccc3c(c2)CCN(Cc2ccc4c(c2)COC4=O)C3)ncc1C#N` [Example 34, 4-methyl-6-((2-((1-oxo-1,3-dihydro-isobenzofuran-5-yl)methyl)-1,2,3,4-tetrahydroisoquinolin-6-yl)amino) nicotinonitrile], 6.52. In the case of `Cc1c(CN2CCc3cc(Nc4ncc(C#N)cn4)ccc3C2)ccc2c1COC2=O` [Example 37, 2-((2-((4-methyl-1-oxo-1,3-dihydro-isobenzofuran-5-yl)methyl)-1,2,3,4-tetrahydroisoquinolin-6-yl)amino) pyrimidine-5-carbonitrile] it was 5.31; in that of `Cc1c(CN2CCc3cc(Nc4ccn5nccc5n4)ccc3C2)ccc2c1COC2=O` [Example 38, 4-methyl-5-((6-(pyrazolo[1,5-a]pyrimidin-5-ylamino)-3,4-dihydroisoquinolin-2(1H)-yl)methyl)isobenzofuran-1(3H)-one], 5.72; in that of `Cc1c(CN2CCc3cc(Nc4cccc(F)c4C#N)ccc3C2)ccc2c1COC2=O` [Example 39, 2-fluoro-6-((2-((4-methyl-1-oxo-1,3-dihydroisobenzofuran-5-yl)methyl)-1,2,3,4-tetrahydroisoquinolin-6-yl)amino)benzonitrile], 6.26.

As to `Cc1c(CN2CCc3nc(-n4cnc5c(C#N)cccc54)ncc3C2)ccc2c1COC2=O` [Example 40, 1-(6-((4-methyl-1-oxo-1,3-dihydro-isobenzofuran-5-yl)methyl)-5,6,7,8-tetrahydropyrido[4,3-d]pyrimidin-2-yl)-1H-benzo[d]imidazole-4-carbonitrile], the negative logarithm of the IC50 (pIC50) was 5.47. In the case of `N#Cc1cnc2c(ccn2-c2ncc3c(n2)CCN(Cc2ccc4c(c2)COC4=O)C3)c1` [Example 46, 1-(6-((1-oxo-1,3-dihydroisobenzofuran-5-yl)methyl)-5,6,7,8-tetrahydropyrido[4,3-d]pyrimidin-2-yl)-1H-pyrrolo[2,3-b] pyridine-5-carbonitrile] it was 5.82. In the case of `Cc1c(CN2CCc3nc(N(C)c4ccc(C#N)c(F)c4)ncc3C2)ccc2c1COC2=O` [Example 47, 2-fluoro-4-(methyl(6-((4-methyl-1-oxo-1,3-dihydroisobenzofuran-5-yl)methyl)-5,6,7,8-tetrahydropyrido[4,3-d]pyrimidin-2-yl)amino) benzonitrile] it was 5.72.
